From PubChem BioAssay AID248 (DTP/NCI, 2004)
Where “and” joins values, the source holds several entries; their conditions need not be identical. Identical values can stand only once. Inconclusive results and toxic doses are left out. No stated cut-off is given here; in the data, active means T/C of 150% or more; inactive means T/C below 125%.

Tested on: L1210 leukemia ip in BDF1 mice, survival T/C
Assay: NCI In Vivo Anticancer Drug Screen. Data for tumor model L1210 Leukemia (intraperitoneal) in B6D2F1 (BDF1) mice
Details: endpoint: mean survival time, higher = longer survival
In short: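 Mice bearing the transplanted tumor received compound or vehicle. Survival of the treated group was divided by that of the vehicle-treated control group to give the ratio.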

[1] = dose: 100.0 mg/kg/injection, schedule: Q01DX009 (ip), vehicle: saline
[2] = dose: 200.0 mg/kg/injection, schedule: Q01DX009 (ip), vehicle: saline
[3] = dose: 400.0 mg/kg/injection, schedule: Q01DX009 (ip), vehicle: saline
[4] = dose: 100.0 mg/kg/injection, schedule: Q04DX002 (ip), vehicle: Klucel (hydroxypropylcellulose) (HPC)
[5] = dose: 200.0 mg/kg/injection, schedule: Q04DX002 (ip), vehicle: Klucel (hydroxypropylcellulose) (HPC)
[6] = dose: 400.0 mg/kg/injection, schedule: Q04DX002 (ip), vehicle: Klucel (hydroxypropylcellulose) (HPC)
[7] = dose: 100.0 mg/kg/injection, schedule: Q04DX002 (ip), vehicle: saline
[8] = dose: 200.0 mg/kg/injection, schedule: Q04DX002 (ip), vehicle: saline
[9] = dose: 400.0 mg/kg/injection, schedule: Q04DX002 (ip), vehicle: saline
[10] = dose: 100.0 mg/kg/injection, schedule: Q01DX001 (ip), vehicle: saline

Measured: T/C

O=S(=O)(O)CCN(CCO)CCO
inactive: [1] 98 % of control | dose: 100.0 mg/kg/injection, schedule: Q04DX003 (ip), vehicle: saline 97 % of control | [2] 101 % of control | dose: 200.0 mg/kg/injection, schedule: Q04DX003 (ip), vehicle: saline 101 % of control | [3] 109 % of control | dose: 400.0 mg/kg/injection, schedule: Q04DX003 (ip), vehicle: saline 94 % of control

C/C(=C\c1ccccc1)C(=O)c1ccccc1
inactive: dose: 6.25 mg/kg/injection, schedule: Q01DX009 (ip), vehicle: water 109 % of control | dose: 12.5 mg/kg/injection, schedule: Q01DX009 (ip), vehicle: water 107 % of control | dose: 25.0 mg/kg/injection, schedule: Q01DX009 (ip), vehicle: water 101 % of control and 91 % of control | dose: 50.0 mg/kg/injection, schedule: Q01DX009 (ip), vehicle: water 95 % of control and 112 % of control | dose: 100.0 mg/kg/injection, schedule: Q01DX009 (ip), vehicle: Klucel (hydroxypropylcellulose) (HPC) 93 % of control | dose: 100.0 mg/kg/injection, schedule: Q01DX009 (ip), vehicle: other 113 % of control | dose: 100.0 mg/kg/injection, schedule: Q01DX009 (ip), vehicle: water 101 % of control and 106 % of control | [4] 100 % of control | dose: 100.0 mg/kg/injection, schedule: Q04DX003 (ip), vehicle: other 101 % of control | dose: 200.0 mg/kg/injection, schedule: Q01DX009 (ip), vehicle: Klucel (hydroxypropylcellulose) (HPC) 98 % of control | dose: 200.0 mg/kg/injection, schedule: Q01DX009 (ip), vehicle: other 101 % of control | dose: 200.0 mg/kg/injection, schedule: Q01DX009 (ip), vehicle: water 104 % of control and 107 % of control | [5] 92 % of control | dose: 200.0 mg/kg/injection, schedule: Q04DX003 (ip), vehicle: other 101 % of control | dose: 400.0 mg/kg/injection, schedule: Q01DX009 (ip), vehicle: Klucel (hydroxypropylcellulose) (HPC) 105 % of control | dose: 400.0 mg/kg/injection, schedule: Q01DX009 (ip), vehicle: other 108 % of control | dose: 400.0 mg/kg/injection, schedule: Q01DX009 (ip), vehicle: water 106 % of control | [6] 95 % of control | dose: 400.0 mg/kg/injection, schedule: Q04DX003 (ip), vehicle: other 100 % of control

CCN(C)CCC(CC=C(C)C)(C(N)=O)c1cccc2ccccc12 (stereo not drawn)
inactive: dose: 12.5 mg/kg/injection, schedule: Q04DX002 (ip), vehicle: saline 100 % of control | dose: 25.0 mg/kg/injection, schedule: Q04DX002 (ip), vehicle: saline 87 % of control

C(=N/N=C(N/N=C/c1cccs1)N/N=C/c1cccs1)/c1cccs1
inactive: dose: 15.0 mg/kg/injection, schedule: Q01DX Z (ip), vehicle: carboxymethylcellulose (CMC) 97 % of control | dose: 30.0 mg/kg/injection, schedule: Q01DX Z (ip), vehicle: carboxymethylcellulose (CMC) 89 % of control | dose: 60.0 mg/kg/injection, schedule: Q01DX Z (ip), vehicle: carboxymethylcellulose (CMC) 97 % of control | dose: 120.0 mg/kg/injection, schedule: Q01DX Z (ip), vehicle: carboxymethylcellulose (CMC) 95 % of control and 97 % of control | dose: 240.0 mg/kg/injection, schedule: Q01DX Z (ip), vehicle: carboxymethylcellulose (CMC) 97 % of control | dose: 240.0 mg/kg/injection, schedule: Q01DX Z (oral), vehicle: carboxymethylcellulose (CMC) 107 % of control | dose: 480.0 mg/kg/injection, schedule: Q01DX Z (ip), vehicle: carboxymethylcellulose (CMC) 94 % of control | dose: 480.0 mg/kg/injection, schedule: Q01DX Z (oral), vehicle: carboxymethylcellulose (CMC) 107 % of control | dose: 960.0 mg/kg/injection, schedule: Q01DX Z (oral), vehicle: carboxymethylcellulose (CMC) 105 % of control | dose: 1920.0 mg/kg/injection, schedule: Q01DX Z (oral), vehicle: carboxymethylcellulose (CMC) 111 % of control

CSc1nc(NN)cc(-c2ccccc2)n1
inactive: dose: 100.0 mg/kg/injection, schedule: Q01DX Z (ip), vehicle: methylcellulose (MC) 98 % of control | dose: 200.0 mg/kg/injection, schedule: Q01DX Z (ip), vehicle: methylcellulose (MC) 90 % of control

COC1c2ccccc2CC1(C)C (stereo not drawn)
inactive: [7] 118 % of control | [8] 105 % of control | [9] 94 % of control

CC1C[N+](C)(C)NC1=O (stereo not drawn)
inactive: [10] 98 % of control | [1] 103 % of control | dose: 200.0 mg/kg/injection, schedule: Q01DX001 (ip), vehicle: saline 103 % of control | [2] 107 % of control | dose: 400.0 mg/kg/injection, schedule: Q01DX001 (ip), vehicle: saline 92 % of control | [3] 91 % of control

CC(C)N(C=O)c1ccc(C(=O)O)cc1
inactive: dose: 100.0 mg/kg/injection, schedule: Q01DX001 (ip), vehicle: Klucel (hydroxypropylcellulose) (HPC) 93 % of control | dose: 100.0 mg/kg/injection, schedule: Q04DX003 (ip), vehicle: Klucel (hydroxypropylcellulose) (HPC) 108 % of control | dose: 200.0 mg/kg/injection, schedule: Q01DX001 (ip), vehicle: Klucel (hydroxypropylcellulose) (HPC) 93 % of control | dose: 200.0 mg/kg/injection, schedule: Q04DX003 (ip), vehicle: Klucel (hydroxypropylcellulose) (HPC) 97 % of control | dose: 400.0 mg/kg/injection, schedule: Q01DX001 (ip), vehicle: Klucel (hydroxypropylcellulose) (HPC) 86 % of control | dose: 400.0 mg/kg/injection, schedule: Q04DX003 (ip), vehicle: Klucel (hydroxypropylcellulose) (HPC) 89 % of control

O=C(O)c1ccc(NCc2cccc(N=Cc3ccccc3)c2)cc1
inactive: dose: 100.0 mg/kg/injection, schedule: Q01DX001 (ip), vehicle: saline with Tween-80 93 % of control | dose: 200.0 mg/kg/injection, schedule: Q01DX001 (ip), vehicle: saline with Tween-80 93 % of control | dose: 400.0 mg/kg/injection, schedule: Q01DX001 (ip), vehicle: saline with Tween-80 103 % of control

O=C1NC(=S)S/C1=C/c1ccco1
inactive: [4] 105 % of control | [5] 98 % of control | [6] 105 % of control

C[N+](C)(CCOc1ccccc1)Cc1cccs1
inactive: dose: 50.0 mg/kg/injection, schedule: Q01DX001 (ip), vehicle: saline 109 % of control | [10] 97 % of control

CCNC(C)CC(C)C (stereo not drawn)
inactive: dose: 25.0 mg/kg/injection, schedule: Q01DX009 (ip), vehicle: saline with Tween-80 101 % of control | dose: 25.0 mg/kg/injection, schedule: Q04DX003 (ip), vehicle: saline with Tween-80 95 % of control | dose: 50.0 mg/kg/injection, schedule: Q01DX009 (ip), vehicle: saline with Tween-80 92 % of control | dose: 50.0 mg/kg/injection, schedule: Q04DX003 (ip), vehicle: saline with Tween-80 92 % of control | dose: 100.0 mg/kg/injection, schedule: Q01DX009 (ip), vehicle: saline with Tween-80 98 % of control | dose: 100.0 mg/kg/injection, schedule: Q04DX003 (ip), vehicle: saline with Tween-80 93 % of control and 96 % of control

O=C1NC23CC=CCC12CCC3 (stereo not drawn)
inactive: [7] 100 % of control | [8] 93 % of control | [9] 109 % of control

CSc1ccc(NC(=O)Nc2ccc([N+](=O)[O-])cc2C)cc1
inactive: dose: 100.0 mg/kg/injection, schedule: Q04DX002 (ip), vehicle: saline with Tween-80 98 % of control | dose: 200.0 mg/kg/injection, schedule: Q04DX002 (ip), vehicle: saline with Tween-80 95 % of control | dose: 400.0 mg/kg/injection, schedule: Q04DX002 (ip), vehicle: saline with Tween-80 91 % of control

CC1CN1C1=C(F)C(=O)C(N2CC2C)=C(F)C1=O (stereo not drawn)
inactive: dose: 0.19 mg/kg/injection, schedule: Q01DX009 (ip), vehicle: Klucel (hydroxypropylcellulose) (HPC) 105 % of control | dose: 0.39 mg/kg/injection, schedule: Q01DX009 (ip), vehicle: Klucel (hydroxypropylcellulose) (HPC) 104 % of control | dose: 0.78 mg/kg/injection, schedule: Q01DX009 (ip), vehicle: Klucel (hydroxypropylcellulose) (HPC) 102 % of control | dose: 0.78 mg/kg/injection, schedule: Q04DX003 (ip), vehicle: Klucel (hydroxypropylcellulose) (HPC) 103 % of control | dose: 1.56 mg/kg/injection, schedule: Q01DX009 (ip), vehicle: Klucel (hydroxypropylcellulose) (HPC) 100 % of control | dose: 1.56 mg/kg/injection, schedule: Q04DX003 (ip), vehicle: Klucel (hydroxypropylcellulose) (HPC) 105 % of control | dose: 3.12 mg/kg/injection, schedule: Q01DX009 (ip), vehicle: Klucel (hydroxypropylcellulose) (HPC) 100 % of control | dose: 3.12 mg/kg/injection, schedule: Q04DX003 (ip), vehicle: Klucel (hydroxypropylcellulose) (HPC) 101 % of control | dose: 4.6 mg/kg/injection, schedule: Q01DX009 (ip), vehicle: Klucel (hydroxypropylcellulose) (HPC) 103 % of control
